According to PMC6667648 (Frontiers in Microbiology, 2019):
≈ marks a conversion by molar mass, not a printed value. Where a SMILES comes first, the peptide text is derived from it. Bridges are numbered along the chain shown (N, C = ends).

How the values were obtained:
[1] = system: S. aureus ATCC 29213; assay: microbe, parasite or virus in culture; details: S. aureus ATCC 29213, serial passaging at sub-MIC, duplicate
From the text: The development of resistance was confirmed if the microorganism started growing at continuously higher concentrations. […] Evaluations were done in duplicate.

[2] = system: human HaCaT keratinocytes; type: cell-based; details: 256 μg/mL
Procedure: Non-invasive real-time evaluation of viability, mammalian, and bacterial cells, was performed using bioluminescent human keratinocytes (HaCaT, AddexBio, San Diego, CA) and murine L929 fibroblast cells (ATCC, Manassas, VA). The bioluminescent variants were constructed by transfection with a luciferase gene (RediFect Red-Fluc-Puromycin, Catalog #CL596002) (Hamblin et al., [2003]). […] Each concentration was performed in triplicate. Bioluminescence imaging was performed at pre-specified times (0, 15, and 30 min and 1, 3, 5, 8, and 24 h) and compared to concurrently run vehicle-controls. The 96-well plate was positioned on the stage (12.5-cm field of view) within the in vivo Imaging System (IVIS) imaging system (Caliper Life Sciences, Inc., Hopkinton, MA, USA), with an open emission filter, binning of 4, and f-stop 1, and a 1-min exposure time. The resultant photons emitted from the live cells were quantified using Living Image® software (version 4.3, Caliper Life Sciences, Inc.). Monitoring bioluminescence allows assessment of the kinetics of cellular viability as there is a tight correlation between photon count imaging and viable counts (Kadurugamuwa et al., [2003]).

[3] = system: K. pneumonia 6069; assay: microbe, parasite or virus in culture; type: cell-based, Klebsiella pneumoniae; details: 24 h
Procedure: (§1) Strains were obtained from American Type Culture Collection (ATCC, Manassas, VA) or the clinical isolate collection at Trideum Biosciences (Frederick, MD, USA). Bioluminescence strains of P. aeruginosa 19660, transfected with the Xen5 luciferase gene, and S. aureus ATCC® 49525™ (Wright), transfected with the Xen36 luciferase gene, were obtained from Perkin Elmer (Hopkinton, MA).
(§2) A single colony was aseptically picked from an agar overlay and released in 25–30 mL of pre-warmed trypticase soy broth in a culture flask. Each culture was incubated overnight in a 37°C incubator. […] Pathogen growth was measured by absorbance at 600 nm. Four replicas were included for each test agent concentration. […]

[4] = system: K. pneumonia 6066; assay: microbe, parasite or virus in culture; type: cell-based, Klebsiella pneumoniae; details: 24 h
Procedure: as §1, §2

[5] = system: K. pneumonia ATCC 10031; assay: microbe, parasite or virus in culture; type: cell-based, Klebsiella pneumoniae; details: ATCC 10031, 24 h
Procedure: as §1, §2

[6] = system: P. aeruginosa P14 biofilm; type: cell-based, Pseudomonas aeruginosa; details: CFU count
[7] = system: C. albicans Y-326; type: cell-based; details: 24-h incubation, mean of 3 replicates from 2 independent experiments
Procedure: as §1, §2

[8] = system: C. albicans Y-6359; type: cell-based; details: 24-h incubation, mean of 3 replicates from 2 independent experiments
Procedure: as §1, §2

[9] = system: mature (120 h) MRSA ATCC 1556 biofilm; type: cell-based, Staphylococcus aureus; details: mature (120 h) MRSA biofilm, 16 h treatment, CFU count, three technical replicates
[10] = system: human red blood cells; assay: Human hemolysis assay; type: cell-based; details: 30 min, 37°C, absorbance 540 nm, duplicate
Procedure: […]. Distilled water was used as a control for 100% hemolysis with the background level of absorbance being water only (Stasiuk et al., [2004]). The percent hemolysis was calculated as (test wellAbs – backgroundAbs) / (100% lysisAbs – backgroundAbs). Experiments were run in duplicate.

[11] = system: S. epidermis ATCC 51625; assay: microbe, parasite or virus in culture; type: cell-based, S. epidermidis; details: ATCC 51625, 24 h
Procedure: as §1, §2

[12] = statement in discussion

CC[C@H](C)[C@@H]1NC(=O)CNC(=O)[C@H](CCCCN)NC(=O)[C@H](Cc2ccc(O)cc2)NC(=O)[C@@H]2CSSC[C@H](NC1=O)C(=O)N[C@@H](Cc1ccccc1)C(=O)N[C@@H](CCCCN)C(=O)N[C@@H](CCCCN)C(=O)N[C@H](C(=O)N[C@@H](CCCCN)C(N)=O)CSSC[C@H](NC(=O)[C@H](Cc1ccccc1)NC(=O)[C@@H](N)CCCNC(=N)N)C(=O)N[C@@H](Cc1c[nH]c3ccccc13)C(=O)N[C@@H](CCCCN)C(=O)N[C@@H](C(C)C)C(=O)N2 [RP557] (H-RFCWKVCYKGICFKKCK-NH2; disulfide 3-16, 7-12)
MIC on Passage #0 and Passage #1 [1]: 2 µg/mL (≈ 0.936 µM) | MIC on Passage #30 [1]: 32 µg/mL (≈ 15 µM) | Keratinocyte cell killing ([2]; 8 h incubation): no cell killing observed | Keratinocyte viability ([2]; 8 h): greater than 80% | Minimum Inhibitory Concentration (MIC) [3]: 2.0 [4] μM | Minimum Inhibitory Concentration (MIC) [4]: 4.0 [8] μM | Minimum Inhibitory Concentration (MIC) [5]: 4.0 [8] μM | EC50, biofilm [6]: 32 µg/mL (≈ 15 µM) | Minimum Inhibitory Concentration (MIC) [7]: 8.0 [16] μM | Minimum Inhibitory Concentration (MIC) [8]: 2.0 [4] μM | EC90 (concentration to reduce biofilm by 90%) [9]: 2 µg/mL (≈ 0.936 µM) | Minimum hemolytic concentration required to cause 10% hemolysis, MHC [10]: 128 µg/mL | Minimum Inhibitory Concentration (MIC) [11]: 4.0 [8] μM | Water solubility [12]: water-soluble
